Drawing on patent US8436043B2 (Takeda Pharmaceutical Company Limited, priority 2008, dated 2013), this text covers inhibition for 25 compounds.

T1 sequence (P47871 26-477): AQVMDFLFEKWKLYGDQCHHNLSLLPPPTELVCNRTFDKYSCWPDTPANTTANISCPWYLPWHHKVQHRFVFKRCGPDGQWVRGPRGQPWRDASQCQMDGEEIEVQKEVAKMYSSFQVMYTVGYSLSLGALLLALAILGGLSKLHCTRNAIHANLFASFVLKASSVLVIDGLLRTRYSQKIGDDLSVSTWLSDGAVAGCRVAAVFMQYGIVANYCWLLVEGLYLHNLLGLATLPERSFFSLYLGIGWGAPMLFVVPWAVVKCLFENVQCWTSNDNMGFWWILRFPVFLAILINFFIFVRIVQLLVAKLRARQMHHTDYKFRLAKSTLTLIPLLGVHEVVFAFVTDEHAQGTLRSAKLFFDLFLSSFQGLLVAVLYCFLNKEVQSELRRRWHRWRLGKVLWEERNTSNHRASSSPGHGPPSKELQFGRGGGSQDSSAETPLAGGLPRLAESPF

This assay has as its target T1, human glucagon receptor (Homo sapiens, UniProt P47871).
T1 construct: made in house; host or cells: FreeStyle CHO cells, transient transfection with pMSRαneo/hGCGR; membrane fraction (35,000 rpm pellet)
In words: Glucagon binding inhibitory activity ([125I]-glucagon binding to glucagon receptor membrane protein). To be noted: test compound 10 μM; 0.4% DMSO = 0%, non-labeled glucagon 1 μM = 100%; read-out: inhibitory rate (%) at 10 μM. On the procedure: The glucagon binding inhibitory action of the compound of the present invention was evaluated by the following method.
(1) Cloning of Human Glucagon Receptor Gene
Human glucagon receptor gene was cloned by PCR reaction using human pancreas Marathon-ready cDNA (Clontech) as a template and the following primer set.
PCR reaction was performed using Advantage 2 polymerase (Clontech) and according to the attached protocol. The obtained PCR product was electrophoresed on an agarose gel (1%). An about 1.4 kb of DNA fragment containing a glucagon receptor gene was recovered from the gel and digested with restriction enzymes EcoRI and NotI. DNA treated with the restriction enzymes was electrophoresed on an agarose gel (1%). An about 1.4 kb of DNA fragment was recovered and ligated to plasmid pMSRαneo digested with restriction enzymes EcoRI and NotI to construct a human-type glucagon receptor expression plasmid DNA “pMSRαneo/hGCGR”.
(2) Preparation of Glucagon Receptor Membrane Protein
A human-type glucagon receptor was expressed using FreeStyle CHO Expression System (Invitrogen). A transient expression in FreeStyle CHO cell was performed using a human-type glucagon receptor expression plasmid DNA “pMSRαneo/hGCGR” and according to the manual attached to the FreeStyle CHO Expression System. The above-mentioned DNA was transfected and the cultured with shaking for 2 days (37° C., 8% CO2, 125 rpm). 2400 ml of culture medium was centrifuged at 2,000 rpm for 10 min and the cells were collected. The collected cells were washed with PBS, suspended in homogenate buffer [10 mM NaHCO3 (pH 7.4), 1 mM EDTA, Complete EDTA-free (Roche, 1 tablet/50 ml)] and disrupted by polytron cell disrupter (Kinematica AG). Disruption solution was centrifuged at 2,000 rpm for 10 min and the supernatant was collected.
(3) Measurement of Glucagon Binding Inhibitory Activity
The plate was stood for 90 min at room temperature. The reaction solution was transferred from the reaction plate to a 96 well unifilter GF/C plate (Perkin Elmer Inc.) using a cell harvester (Perkin Elmer Inc.) and the membrane fraction was collected on the filter by suction. The filter was presoaked in 2 mg/ml of polyethyleneimine to prevent non-specific adsorption of labeled ligand. The filter was washed 4 times with a reaction buffer and dried for 2 hr at 42° C. To each well was added 25 μl of scintillator (MicroScint0; Perkin Elmer Inc.), and the fluorescence amount was measured using a microplate scintillation counter (TopCount NXT™; Perkin Elmer Inc.).
In addition, the inhibitory rate (%) of the well added with the test compound (10 μM; containing 0.4% DMSO) was calculated, using the reaction rate of the well added only with 0.4% DMSO as 0% inhibitory rate, and the reaction rate of the well added with non-labeled glucagon (final concentration 1 μM) as 100% inhibitory rate.
For the compound `CC(C)Oc1nn(-c2ccc(OC(F)(F)F)cc2)cc1C(Nc1ccc(C(=O)N(C)CCC(=O)O)cc1)C1CCCCC1` (stereo not shown) [Example 65, 3-[({4-[(cyclohexyl{3-(1-methylethoxy)-1-[4-(trifluoromethoxy)phenyl]-1H-pyrazol-4-yl}methyl)amino]phenyl}carbonyl)(methyl)amino]propanoic acid], the inhibition at 10 µM worked out at 64%.

Regarding `Cc1c(C(Nc2ccc(C(=O)N(C)CCC(=O)O)cc2)C(C)C)oc2ccc(OCc3ccccc3)cc12` (stereo not shown) [Example A85, 3-[{[4-({1-[5-(benzyloxy)-3-methyl-1-benzofuran-2-yl]-2-methylpropyl}amino)phenyl]carbonyl}(methyl)amino]propanoic acid], the inhibition at 10 µM is 82%.

With `Cc1nn(-c2ncc(C(F)(F)F)cc2Cl)cc1C(Nc1ccc(C(=O)N(C)CCC(=O)O)cc1)C1CCCCC1` (stereo not shown) [Example 32, 3-{[(4-{[{1-[3-chloro-5-(trifluoromethyl)pyridin-2-yl]-3-methyl-1H-pyrazol-4-yl}(cyclohexyl)methyl]amino}phenyl)carbonyl](methyl)amino}-propanoic acid], the inhibition at 10 µM was determined as 59%.

With `Cc1c(C(Nc2ccc(C(=O)NCCC(=O)O)cc2)C2CCCCC2)sc2ncccc12` (stereo not shown) [Example A142, 3-{[(4-{[cyclohexyl(3-methylthieno[2,3-b]pyridin-2-yl)methyl]amino}phenyl)carbonyl]amino}propanoic acid], the inhibition at 10 µM was 87%.

As to `COc1ccc2oc(C(CCCCSC)Nc3ccc(C(=O)N(C)CCC(=O)O)cc3)c(C)c2c1` (stereo not shown) [Example A121, 3-{[(4-{[1-(5-methoxy-3-methyl-1-benzofuran-2-yl)-5-(methylsulfanyl)pentyl]amino}phenyl)carbonyl](methyl)amino}-propanoic acid], the inhibition at 10 µM turned out to be 59%.

For the compound `CN(CCC(=O)O)C(=O)c1ccc(NC(c2cc3ccccc3o2)C2CCCCC2)cc1` (stereo not shown) [Example A4, 3-{[(4-{[1-benzofuran-2-yl(cyclohexyl)methyl]amino}phenyl)carbonyl](methyl)amino}-propanoic acid], the inhibition at 10 µM was determined as 66%.

With `Cc1c(C(Nc2ccc(C(=O)N(C)CCC(=O)O)cc2)C2CCCCC2)oc2ccc(Cl)cc12` (stereo not shown) [Example A89], the inhibition at 10 µM was 80%.

Regarding `CCOc1cccc(-n2cc(C(CC(C)C)Nc3ccc(C(=O)N(C)CCC(=O)O)cc3)c(CC)n2)c1` (stereo not shown) [Example 85, 3-[{[4-({1-[1-(3-ethoxyphenyl)-3-ethyl-1H-pyrazol-4-yl]-3-methylbutyl}amino)phenyl]carbonyl}(methyl)amino]propanoic acid], the inhibition at 10 µM worked out at 68%.

On to `Cc1c(C(Nc2ccc(C(=O)NCCC(=O)O)cc2)C2CCCCC2)oc2ccc(OCc3ccnc(F)c3)cc12` (stereo not shown) [Example A167, 3-[({4-[(cyclohexyl{5-[(2-fluoropyridin-4-yl)methoxy]-3-methyl-1-benzofuran-2-yl}methyl)amino]phenyl}carbonyl)amino]propanoic acid], for which the inhibition at 10 µM worked out at 86%.

Consider `Cc1c(C(Nc2ccc(C(=O)N(C)CCC(=O)O)cc2)C2CCCCC2)oc2ccc(C#N)cc12` (stereo not shown) [Example A99, 3-{[(4-{[(5-cyano-3-methyl-1-benzofuran-2-yl)(cyclohexyl)methyl]amino}phenyl)carbonyl](methyl)amino}-propanoic acid], for which the inhibition at 10 µM was 80%.

On to `Cc1nn(-c2ccc(OC(F)(F)F)cc2)cc1C(Nc1ccc(C(=O)NCCC(=O)O)cc1)C1CCCCC1` (stereo not shown) [Example 25, 3-[({4-[(cyclohexyl{3-methyl-1-[4-(trifluoromethoxy)phenyl]-1H-pyrazol-4-yl}methyl)amino]phenyl}carbonyl)amino]propanoic acid], for which the inhibition at 10 µM came out at 78%.

In the case of `Cc1nn(-c2ccccc2)cc1C(Nc1ccc(C(=O)N(C)CCC(=O)O)cc1)C1CCCCC1` (stereo not shown) [Example 18, 3-{[(4-{[cyclohexyl(3-methyl-1-phenyl-1H-pyrazol-4-yl)methyl]amino}phenyl)carbonyl](methyl)amino}propanoic acid], the inhibition at 10 µM came to 72%.

As to `Cc1c(C(Nc2ccc(C(=O)N(C)CCC(=O)O)cc2)C2CCCCC2)oc2ccc(OCCCS(C)(=O)=O)cc12` (stereo not shown) [Example A152, 3-[({4-[(cyclohexyl{3-methyl-5-[3-(methylsulfonyl)propoxy]-1-benzofuran-2-yl}methyl)amino]phenyl}carbonyl)(methyl)amino]propanoic acid], the inhibition at 10 µM came out at 76%.

With `CCc1nn(-c2ccc(OC)cc2)cc1C(CC(C)C)Nc1ccc(C(=O)NCCC(=O)O)cc1` (stereo not shown) [Example 48, 3-({[4-({1-[3-ethyl-1-(4-methoxyphenyl)-1H-pyrazol-4-yl]-3-methylbutyl}amino)phenyl]carbonyl}amino)propanoic acid], the inhibition at 10 µM stood at 63%.

As for `COCCOc1ccc2oc(C(Nc3ccc(C(=O)NCCC(=O)O)cc3)C3CCCCC3)c(C)c2c1` (stereo not shown) [Example A149, 3-[{[4-({cyclohexyl[5-(2-methoxyethoxy)-3-methyl-1-benzofuran-2-yl]methyl}amino)phenyl]carbonyl}amino]propanoic acid], the inhibition at 10 µM stood at 69%.

In the case of `COc1ccccc1-n1cc(C)c(C(Nc2ccc(C(=O)N(C)CCC(=O)O)cc2)C2CCCCC2)n1` (stereo not shown) [Example 77, 3-[{[4-({cyclohexyl[1-(2-methoxyphenyl)-4-methyl-1H-pyrazol-3-yl]methyl}amino)phenyl]carbonyl}(methyl)amino]propanoic acid], the inhibition at 10 µM was 55%.

`CCC(C)(C)n1cc(C(Nc2ccc(C(=O)NCCC(=O)O)cc2)C2CCCCC2)c(C)n1` (stereo not shown) [Example 43, 3-({[4-({cyclohexyl[1-(1,1-dimethylpropyl)-3-methyl-1H-pyrazol-4-yl]methyl}amino)phenyl]carbonyl}amino)propanoic acid]: the inhibition at 10 µM was 54%.

As for `CCOc1cccc(-n2cc(C(Nc3ccc(C(=O)NCCC(=O)O)cc3)C3CCCCC3)c(CC)n2)c1` (stereo not shown) [Example 84, 3-({[4-({cyclohexyl[1-(3-ethoxyphenyl)-3-ethyl-1H-pyrazol-4-yl]methyl}amino)phenyl]carbonyl}amino)propanoic acid], the inhibition at 10 µM amounted to 76%.

`COc1ccc2oc(C(Nc3ccc(C(=O)N(C)CCC(=O)O)cc3)C3CCCCC3)cc2c1` (stereo not shown) [Example A25, 3-{[(4-{[cyclohexyl(5-methoxy-1-benzofuran-2-yl)methyl]amino}phenyl)carbonyl](methyl)amino}propanoic acid]: the inhibition at 10 µM came to 60%.

Turning to `CC(C)Oc1nn(-c2ccc(OC(F)(F)F)cc2)cc1C(Nc1ccc(C(=O)NCCC(=O)O)cc1)C1CCCCC1` (stereo not shown) [Example 64, 3-[({4-[(cyclohexyl{3-(1-methylethoxy)-1-[4-(trifluoromethoxy)phenyl]-1H-pyrazol-4-yl}methyl)amino]phenyl}carbonyl)amino]propanoic acid], the inhibition at 10 µM is 70%.

Turning to `COc1ccc2oc(C(Nc3ccc(C(=O)NCCC(=O)O)cc3)C3CCCCC3)c(C)c2c1` (stereo not shown) [Example A30, 3-{[(4-{[cyclohexyl(5-methoxy-3-methyl-1-benzofuran-2-yl)methyl]amino}phenyl)carbonyl]amino}propanoic acid], the inhibition at 10 µM is 76%.

`Cc1c(C(Nc2ccc(C(=O)N(C)CCC(=O)O)cc2)C2CCCCC2)oc2ccc(OCC3CCCO3)cc12` (stereo not shown) [Example A209, 3-[{[4-({cyclohexyl[3-methyl-5-(tetrahydrofuran-2-ylmethoxy)-1-benzofuran-2-yl]methyl}amino)phenyl]carbonyl}(methyl)amino]propanoic acid]: the inhibition at 10 µM is 90%.

With `COc1ccc(-n2cc(C(CC(C)C)Nc3ccc(C(=O)N(C)CCC(=O)O)cc3)c(C3CC3)n2)cc1` (stereo not shown) [Example 45, 3-[{[4-({1-[3-cyclopropyl-1-(4-methoxyphenyl)-1H-pyrazol-4-yl]-3-methylbutyl}amino)phenyl]carbonyl}(methyl)amino]propanoic acid], the inhibition at 10 µM stood at 60%.

As to `Cc1c(C(CC(C)C)Nc2ccc(C(=O)NCCC(=O)O)cc2)oc2ccc(Cl)cc12` (stereo not shown) [Example A100, 3-{[(4-{[1-(5-chloro-3-methyl-1-benzofuran-2-yl)-3-methylbutyl]amino}phenyl)carbonyl]amino}propanoic acid], the inhibition at 10 µM was determined as 78%.

Consider `Cc1c(C(Nc2ccc(C(=O)NCCC(=O)O)cc2)C(C)C)oc2ccc(OCc3ccccc3)cc12` (stereo not shown) [Example A171, 3-({[4-({1-[5-(benzyloxy)-3-methyl-1-benzofuran-2-yl]-2-methylpropyl}amino)phenyl]carbonyl}amino)propanoic acid], for which the inhibition at 10 µM stood at 86%.
